Assay results from the NIST ThermoML archive (doi:10.1016/j.jct.2013.12.025).
± gives the expanded uncertainty stated by the source.

Assay: refractive index (Na D-line) (dimensionless); xn = mol fraction of the nth substance listed
Conditions: 101 kPa, Liquid, Standard Abbe refractometry

C=C[Si](C)(C)O[Si](C)(C)C=C [1,3-diethenyl-1,1,3,3-tetramethyldisiloxane] + O=[N+]([O-])c1ccccc1
refractive index (283.15 K, x1 = 0.05): 1.54466 ± 0.00032 | refractive index (283.15 K, x1 = 0.1): 1.53289 ± 0.00032 | refractive index (283.15 K, x1 = 0.15): 1.52202 ± 0.00032 | refractive index (283.15 K, x1 = 0.2): 1.51193 ± 0.00032 | refractive index (283.15 K, x1 = 0.25): 1.50266 ± 0.00032 | refractive index (283.15 K, x1 = 0.3): 1.49408 ± 0.00032 | refractive index (283.15 K, x1 = 0.3508): 1.48595 ± 0.00032 | refractive index (283.15 K, x1 = 0.4001): 1.47862 ± 0.00032 | refractive index (283.15 K, x1 = 0.4501): 1.4717 ± 0.00032 | refractive index (283.15 K, x1 = 0.4999): 1.46522 ± 0.00032 | refractive index (283.15 K, x1 = 0.55): 1.45917 ± 0.00032 | refractive index (283.15 K, x1 = 0.6001): 1.45344 ± 0.00032 | refractive index (283.15 K, x1 = 0.6487): 1.44824 ± 0.00032 | refractive index (283.15 K, x1 = 0.6999): 1.44306 ± 0.00032 | refractive index (283.15 K, x1 = 0.7499): 1.43821 ± 0.00032 | refractive index (283.15 K, x1 = 0.7999): 1.4337 ± 0.00032 | refractive index (283.15 K, x1 = 0.8497): 1.42937 ± 0.00032 | refractive index (283.15 K, x1 = 0.9): 1.42527 ± 0.00032 | refractive index (283.15 K, x1 = 0.9499): 1.42134 ± 0.00032 | refractive index (283.15 K, x1 = 1): 1.4176 ± 0.00032 | refractive index (288.15 K, x1 = 0.05): 1.54219 ± 0.00032 | refractive index (288.15 K, x1 = 0.1): 1.53042 ± 0.00032 | refractive index (288.15 K, x1 = 0.15): 1.51955 ± 0.00032 | refractive index (288.15 K, x1 = 0.2): 1.50945 ± 0.00032 | refractive index (288.15 K, x1 = 0.25): 1.50017 ± 0.00032 | refractive index (288.15 K, x1 = 0.3): 1.49154 ± 0.00032 | refractive index (288.15 K, x1 = 0.3508): 1.48341 ± 0.00032 | refractive index (288.15 K, x1 = 0.4001): 1.47608 ± 0.00032 | refractive index (288.15 K, x1 = 0.4501): 1.46914 ± 0.00032 | refractive index (288.15 K, x1 = 0.4999): 1.46267 ± 0.00032 | refractive index (288.15 K, x1 = 0.55): 1.45661 ± 0.00032 | refractive index (288.15 K, x1 = 0.6001): 1.45088 ± 0.00032 | refractive index (288.15 K, x1 = 0.6487): 1.44565 ± 0.00032 | refractive index (288.15 K, x1 = 0.6999): 1.44044 ± 0.00032 | refractive index (288.15 K, x1 = 0.7499): 1.43565 ± 0.00032 | refractive index (288.15 K, x1 = 0.7999): 1.43109 ± 0.00032 | refractive index (288.15 K, x1 = 0.8497): 1.42677 ± 0.00032 | refractive index (288.15 K, x1 = 0.9): 1.42262 ± 0.00032 | refractive index (288.15 K, x1 = 0.9499): 1.4187 ± 0.00032 | refractive index (288.15 K, x1 = 1): 1.41495 ± 0.00032 | refractive index (293.15 K, x1 = 0.05): 1.5397 ± 0.00032 | refractive index (293.15 K, x1 = 0.1): 1.52796 ± 0.00032 | refractive index (293.15 K, x1 = 0.15): 1.51705 ± 0.00032 | refractive index (293.15 K, x1 = 0.2): 1.50694 ± 0.00032 | refractive index (293.15 K, x1 = 0.25): 1.49764 ± 0.00032 | refractive index (293.15 K, x1 = 0.3): 1.48901 ± 0.00032 | refractive index (293.15 K, x1 = 0.3508): 1.48085 ± 0.00032 | refractive index (293.15 K, x1 = 0.4001): 1.47352 ± 0.00032 | refractive index (293.15 K, x1 = 0.4501): 1.46659 ± 0.00032 | refractive index (293.15 K, x1 = 0.4999): 1.46009 ± 0.00032 | refractive index (293.15 K, x1 = 0.55): 1.45401 ± 0.00032 | refractive index (293.15 K, x1 = 0.6001): 1.4483 ± 0.00032 | refractive index (293.15 K, x1 = 0.6487): 1.44307 ± 0.00032 | refractive index (293.15 K, x1 = 0.6999): 1.43784 ± 0.00032 | refractive index (293.15 K, x1 = 0.7499): 1.43306 ± 0.00032 | refractive index (293.15 K, x1 = 0.7999): 1.42845 ± 0.00032 | refractive index (293.15 K, x1 = 0.8497): 1.42414 ± 0.00032 | refractive index (293.15 K, x1 = 0.9): 1.41999 ± 0.00032 | refractive index (293.15 K, x1 = 0.9499): 1.41606 ± 0.00032 | refractive index (293.15 K, x1 = 1): 1.41227 ± 0.00032 | refractive index (298.15 K, x1 = 0.05): 1.53724 ± 0.00032 | refractive index (298.15 K, x1 = 0.1): 1.52547 ± 0.00032 | refractive index (298.15 K, x1 = 0.15): 1.51459 ± 0.00032 | refractive index (298.15 K, x1 = 0.2): 1.50445 ± 0.00032 | refractive index (298.15 K, x1 = 0.25): 1.49511 ± 0.00032 | refractive index (298.15 K, x1 = 0.3): 1.48643 ± 0.00032 | refractive index (298.15 K, x1 = 0.3508): 1.47825 ± 0.00032 | refractive index (298.15 K, x1 = 0.4001): 1.47089 ± 0.00032 | refractive index (298.15 K, x1 = 0.4501): 1.46395 ± 0.00032 | refractive index (298.15 K, x1 = 0.4999): 1.45748 ± 0.00032 | refractive index (298.15 K, x1 = 0.55): 1.45139 ± 0.00032 | refractive index (298.15 K, x1 = 0.6001): 1.44568 ± 0.00032 | refractive index (298.15 K, x1 = 0.6487): 1.44043 ± 0.00032 | refractive index (298.15 K, x1 = 0.6999): 1.43521 ± 0.00032 | refractive index (298.15 K, x1 = 0.7499): 1.43043 ± 0.00032 | refractive index (298.15 K, x1 = 0.7999): 1.42584 ± 0.00032 | refractive index (298.15 K, x1 = 0.8497): 1.42152 ± 0.00032 | refractive index (298.15 K, x1 = 0.9): 1.41736 ± 0.00032 | refractive index (298.15 K, x1 = 0.9499): 1.41343 ± 0.00032 | refractive index (298.15 K, x1 = 1): 1.40965 ± 0.00032 | refractive index (303.15 K, x1 = 0.05): 1.5348 ± 0.00032 | refractive index (303.15 K, x1 = 0.1): 1.52302 ± 0.00032 | refractive index (303.15 K, x1 = 0.15): 1.51211 ± 0.00032 | refractive index (303.15 K, x1 = 0.2): 1.50196 ± 0.00032 | refractive index (303.15 K, x1 = 0.25): 1.49265 ± 0.00032 | refractive index (303.15 K, x1 = 0.3): 1.48396 ± 0.00032 | refractive index (303.15 K, x1 = 0.3508): 1.47577 ± 0.00032 | refractive index (303.15 K, x1 = 0.4001): 1.46841 ± 0.00032 | refractive index (303.15 K, x1 = 0.4501): 1.46144 ± 0.00032 | refractive index (303.15 K, x1 = 0.4999): 1.45493 ± 0.00032 | refractive index (303.15 K, x1 = 0.55): 1.44883 ± 0.00032 | refractive index (303.15 K, x1 = 0.6001): 1.44308 ± 0.00032 | refractive index (303.15 K, x1 = 0.6487): 1.43783 ± 0.00032 | refractive index (303.15 K, x1 = 0.6999): 1.43261 ± 0.00032 | refractive index (303.15 K, x1 = 0.7499): 1.42778 ± 0.00032 | refractive index (303.15 K, x1 = 0.7999): 1.42318 ± 0.00032 | refractive index (303.15 K, x1 = 0.8497): 1.41887 ± 0.00032 | refractive index (303.15 K, x1 = 0.9): 1.41471 ± 0.00032 | refractive index (303.15 K, x1 = 0.9499): 1.41079 ± 0.00032 | refractive index (303.15 K, x1 = 1): 1.407 ± 0.00032
